Patent US12171229B2, “Heteroaryl-triazole and heteroaryl-tetrazole compounds as pesticides” (BAYER AKTIENGESELLSCHAFT, priority 2018, dated 2024)

Columns and labels:
Type in all cases: in vivo
Myzus persicae = Myzus persicae oral test; conditions: 120 h, after 5 days
How it was run: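 Aphid mortality (%) was recorded 5 days after a mixed Myzus persicae population began sucking, through parafilm, on compound solutions (acetone stock diluted with water) combined with sugar-supplemented IPL41 medium.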

[1] = tested on: Musca domestica strain WHO-N; test: Musca domestica test (MUSCDO surface treatment & contact assay); conditions: 24 hours after contact, read-out: efficacy (mortality); for mortality at 4 mg/m2: surface concentration 4 mg/m^2, exposure 30 minutes; for mortality at 20 mg/m2: surface concentration 20 mg/m^2, exposure 30 minutes
Protocol: Musca domestica test (MUSCDO surface treatment & contact assay)
(§1) Solvent: Aceton+2000 ppm rapeseed oil methyl ester (RME)
In order to produce a sufficient, active ingredient containing solution it is necessary to solve the test compound in the solvent-mix (acetone at 2 mg/ml/RME 2000 ppm). This solution is pipetted onto a glazed tile and after evaporation of the acetone, adult flies of the species Musca domestica strain WHO-N are placed onto the dried surface. The exposure time is 30 minutes.
Mortality in percent (%) is determined 24 hours after contact of the insects to the treated surface. 100% morality means that all tested insects are dead, whereas 0% means that no insect died.

Nezara viridula = Nezara viridula spray test; conditions: 96 h, after 4 days, larvae on barley plants
How it was run: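 Mortality (%) was assessed at day 4, from 0% (no bugs dead) to 100% (all dead). The spray solution was compound diluted to test concentration in water with 1000 ppm emulsifier and applied to barley carrying southern green stink bug larvae.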

Ctenocephalides felis = Ctenocephalides felis in-vitro contact test, adult cat flea; conditions: 5 μg/cm^2 (=500 g/ha), after 48 hours, adult cat fleas, read-out: efficacy (fleas dead or moribund)
How it was run: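 Compound in acetone coated onto inner walls of glass tubes, e.g. 900 ppm giving 5 μg/cm². After drying, 5–10 adult C. felis added per tube and held at room temperature. At 48 h, fleas unable to escape a 45–50 °C heating plate within 5 min scored dead/moribund, giving % efficacy.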

Diabrotica balteata = Diabrotica balteata spray test; conditions: Diabrotica balteata, in Triticum aestivum, 168 h, after 7 days, larvae on wheat seeds, read-out: efficacy (seedlings grown up); for pest or weed control at 80 µg/disc, 250 g/ha: 80 μg/well (=250 g/ha); for pest or weed control at 160 µg/disc, 500 g/ha: 160 μg/well (=500 g/ha)
How it was run: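 Scoring at 7 days compares seedling growth with untreated, uninfested controls (100% = equal growth, 0% = none grown). Wheat seedlings germinated 1 day on agar, 5 per well, received a spray of test solution made in 1000 ppm emulsifier water. Each unit then received 10–20 beetle larvae.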

[2] = tested on: Aedes aegypti strain MONHEIM; test: Aedes aegypti test (AEDSAE surface treatment & contact assay); conditions: 24 hours after contact, read-out: efficacy (mortality); for mortality at 4 mg/m2: surface concentration 4 mg/m^2, exposure 30 minutes; for mortality at 20 mg/m2: surface concentration 20 mg/m^2, exposure 30 minutes
How it was run: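 Compound dissolved in acetone (2 mg/ml) with 2000 ppm rapeseed oil methyl ester, applied to glazed tile and dried; adult strain MONHEIM mosquitoes exposed 30 minutes. Percent mortality scored 24 hours after contact.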

Spodoptera frugiperda = Spodoptera frugiperda spray test; conditions: 168 h, after 7 days, larvae on maize leaf sections
How it was run: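 Seven-day percent mortality of larvae feeding on Zea mays leaf sections sprayed with test compound. Dilutions were made in water holding 1000 ppm emulsifier.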

[3] = tested on: Anopheles funestus strain FUMOZ-R; test: Anopheles funestus test (ANPHFU surface treatment & contact assay); conditions: 24 hours after contact, read-out: efficacy (mortality); for mortality at 4 mg/m2: surface concentration 4 mg/m^2, exposure 30 minutes; for mortality at 20 mg/m2: surface concentration 20 mg/m^2, exposure 30 minutes
Protocol: Anopheles funestus Test (ANPHFU Surface Treatment & Contact Assay)
as §1
In order to produce a sufficient, active ingredient containing solution it is necessary to solve the test compound in the solvent-mix (acetone at 2 mg/ml/RME 2000 ppm). This solution is pipetted onto a glazed tile and after evaporation of the acetone, adult mosquitoes of the species Anopheles funestus strain FUMOZ-R (Hunt et al., Med. Vet. Entomol. 2005 September; 19(3): 271-275) are placed onto the dried surface. The exposure time is 30 minutes.
Mortality in percent (%) is determined 24 hours after contact of the insects to the treated surface. 100% mortality means that all tested insects are dead, whereas 0% means that no insect died.

Compound	mortality at 4 ppm (Myzus persicae) [%]	mortality at 20 ppm (Myzus persicae; 20 ppm) [%]	mortality at 4 mg/m2 [1] [%]	mortality at 20 mg/m2 [1] [%]	mortality at 100 g/ha (Nezara viridula) [%]	mortality at 500 g/ha (Nezara viridula) [%]	pest or weed control at 5 µg/cm2 (Ctenocephalides felis) [%]	pest or weed control at 80 µg/disc, 250 g/ha (Diabrotica balteata) [%]	pest or weed control at 160 µg/disc, 500 g/ha (Diabrotica balteata) [%]	mortality at 4 mg/m2 [2] [%]	mortality at 20 mg/m2 [2] [%]	mortality at 100 g/ha (Spodoptera frugiperda) [%]	mortality at 500 g/ha (Spodoptera frugiperda) [%]	mortality at 4 mg/m2 [3] [%]	mortality at 20 mg/m2 [3] [%]
CC(c1ncnn1-c1ccc(C#N)cn1)N(CC1CC1)C(=O)c1cc(Cl)cc(C(F)(F)F)c1 (stereo not shown) [Example I-007]	90	100	90 to 100	90 to 100	100	100	100	100	100	90 to 100	90 to 100	100	100	–	–
C[C@H](NC(=O)c1cc(Cl)cc(C(F)(F)F)c1)c1ncnn1-c1ccc(C#N)cn1 [Example I-009]	100	–	90 to 100	90 to 100	–	100	100	100	–	90 to 100	90 to 100	100	100	–	–
C[C@H](NC(=O)c1cc(Cl)cc(C(F)(F)F)c1)c1ncnn1-c1ncc(Cl)cc1F [Example I-013]	–	–	–	90 to 100	–	100	–	100	100	90 to 100	90 to 100	100	100	85 to 100	90 to 100
C[C@H](NC(=O)c1cc(Cl)cc(C(F)(F)F)c1)c1ncnn1-c1cc(C#N)ccn1 [Example I-015]	100	–	–	90 to 100	–	100	100	100	–	90 to 100	90 to 100	100	100	–	90 to 100
C[C@H](NC(=O)c1cc(F)cc(C#N)c1)c1ncnn1-c1ccc(C#N)cn1 [Example I-018]	90	–	90 to 100	90 to 100	100	100	100	100	100	90 to 100	90 to 100	100	100	85 to 100	90 to 100
C[C@H](NC(=O)c1cc(F)cc(C(F)(F)F)c1)c1ncnn1-c1ccc(C#N)cn1 [Example I-019]	–	–	90 to 100	90 to 100	–	90	100	100	100	90 to 100	90 to 100	100	100	85 to 100	90 to 100
C[C@H](NC(=O)c1cc(Cl)cc(C(F)(F)F)c1)c1ncnn1-c1ccc([N+](=O)[O-])cn1 [Example I-028]	100	–	90 to 100	90 to 100	100	100	–	100	100	90 to 100	90 to 100	100	100	85 to 100	90 to 100
C[C@H](NC(=O)c1cc(Cl)cc(C(F)(F)F)c1)c1ncnn1-c1ccc(NC(=O)C2CC2)cn1 [Example I-034, 3-chloro-N-[(1S)-1-(1-{5-[(cyclopropylcarbonyl)amino]pyridin-2-yl}-1H-1,2,4-triazol-5-yl)ethyl]-5-(trifluoromethyl)benzamide]	100	–	–	90 to 100	100	100	100	100	100	90 to 100	90 to 100	100	100	85 to 100	–
C[C@H](NC(=O)c1cc(Cl)cc(Br)c1)c1ncnn1-c1ccc(C#N)cn1 [Example I-046]	100	–	90 to 100	90 to 100	–	–	100	100	100	90 to 100	90 to 100	100	100	85 to 100	90 to 100
C[C@H](NC(=O)c1cc(Cl)cc(Cl)c1)c1ncnn1-c1ccc(C#N)cn1 [Example I-047]	–	–	90 to 100	90 to 100	–	100	100	100	100	90 to 100	90 to 100	100	100	85 to 100	90 to 100
Cc1nc([C@H](C)NC(=O)c2cc(C(F)(F)F)cc(C(F)(F)F)c2)n(-c2ccc(C#N)cn2)n1 [Example I-056]	100	–	90 to 100	90 to 100	100	100	100	100	100	90 to 100	90 to 100	100	100	–	–
